# Results: patent US20230124862A1, “BISMUTH THIOL COMPOUNDS AND COMPOSITIONS AND METHODS OF TREATING MICROBIAL CO-INFECTIONS” (Microbion Corporation, priority 2020, published 2023)
# Read-outs that look alike come from different tables or passages of the source.
# What was measured:
# [1] = test system: Anaerobes (Bacteroides fragilis, Clostridium difficile); experiment: Agar dilution MIC (Example 11); type: cell-based; settings: read-out: MIC
# Procedure: The susceptibility of anaerobic bacteria was determined by agar dilution using Brucella Agar (BD/BBL; Lot No. 5237692) supplemented with 5 μg/mL hemin (Sigma, St. Louis, Mo.; Lot No. 108K1088), 1 μg/mL Vitamin K1 and 5% (v/v) laked sheep blood (Cleveland Scientific, Bath, Ohio; Lot No. 322799).
# Agar Dilution MIC Testing (Anaerobic Bacteria and Gonococci): MIC values for anaerobic bacteria were determined using a reference agar dilution method as described by CLSI (6). Organisms were grown at 35° C. in the Bactron II Anaerobic Chamber (Shel Lab, Cornelius, Oreg.) for approximately 48 hr prior to the assay. Drug dilutions and drug-supplemented agar plates were prepared manually per CLSI (6). The plates were allowed to stand at room temperature for 1 hr to allow the agar surface to dry and pre-reduced for approximately 1 hr in the anaerobe chamber prior to inoculation. Each isolate was suspended to the equivalent of a 0.5 McFarland standard in Brucella broth using a turbidity meter (Dade Behring MicroScan, West Sacramento, Calif.). Each bacterial cell suspension was then diluted 1:10 in Brucella broth and transferred to wells in a stainless steel replicator block which was used to inoculate the test plates. The prongs on the replicator deliver approximately 1-2 μl of inoculum to an agar surface. The resulting inoculum spots contained approximately 1×10^5 CFU/spot. After the inoculum dried, the inoculated drug-supplemented agar plates and no drug growth control plates were incubated at 35° C. for 42-48 hr in the anaerobe chamber. The MIC was read per CLSI guidelines (6).
# [2] = test system: Anaerobes (Bacteroides fragilis, Clostridium difficile); settings: cited from earlier work
# [3] = test system: C. parapsilosis ATCC 22019; settings: C. parapsilosis ATCC 22019, CLSI established QC range, cited from earlier work
# [4] = test system: E. coli ATCC 25922; experiment: MIC control strain; settings: QC organism, Example 13
# [5] = test system: Candida krusei; experiment: Antifungal broth microdilution (Example 13); type: cell-based; settings: C. krusei ATCC 6258, comparators, single value
# [6] = test system: Candida spp.; settings: C. parapsilosis MMX 2323 (ATCC 22019), cited from earlier work
# [7] = test system: Aspergillus spp.; experiment: Antifungal broth microdilution (Example 13); type: cell-based, A. niger, A. terreus, A. fumigatus, A. flavus
# [8] = test system: C. parapsilosis ATCC 22019; experiment: Antifungal broth microdilution (Example 13), QC organism; type: cell-based, Candida parapsilosis; settings: comparators, single value
# [9] = test system: S. aureus ATCC 29213; experiment: MIC control strain; settings: QC organism, Example 13
# [10] = test system: Candida krusei; settings: C. krusei ATCC 6258, CLSI established QC range, cited from earlier work
# [11] = test system: Aspergillus spp.; settings: cited from earlier work
# [12] = test system: Candida spp.; experiment: Broth microdilution MIC (Example 11); type: cell-based, C. parapsilosis, C. albicans, C. glabrata, C. tropicalis
# [13] = test system: Gram-positive organisms (S. aureus, S. pneumoniae); experiment: Broth microdilution MIC with pulmonary surfactant (Survanta); type: cell-based, Staphylococcus aureus, Streptococcus pneumoniae
# [14] = test system: Gram-positive organisms (S. aureus, S. pneumoniae); settings: cited from earlier work
smiles,measurement,setting,value
Cc1ncc([N+](=O)[O-])n1CCO [Metronidazole],MIC,"[1]; Bacteroides fragilis, ATCC25285, B. fragilis MMX 123 (ATCC 25285), QC",0.5 µg/mL
same,MIC,"[1]; C. difficile MMX 4381 (ATCC 700057), QC, CC^1",0.5 µg/mL
same,MIC,"[1]; C. difficile MMX 5680 (NCTC 13336), ribotype 027, CC^1 MET^R",> 64 µg/mL
same,MIC,"[1]; C. difficile MMX 5681 (NCTC 13307), ribotype 012, CC^R",0.5 µg/mL
same,MIC,"[1]; C. difficile MMX 8272, ribotype 255, CC^1",0.5 µg/mL
same,MIC,"[1]; C. difficile MMX 8279, ribotype 005, CC^R",0.5 µg/mL
same,MIC,"[1]; C. difficile MMX 8281, ribotype 010, CC^R",8 µg/mL
same,CLSI QC range of MIC,[2]; B. fragilis MMX 123 (ATCC 25285),(0.25-1) μg/mL
same,CLSI QC range of MIC,[2]; C. difficile MMX 4381 (ATCC 700057),(0.12-0.5) μg/mL
C[C@@H]1[C@H](O)[C@@H](C)/C=C/C=C/C=C/C=C/C=C/C=C/C=C/[C@H](O[C@@H]2O[C@H](C)[C@@H](O)[C@H](N)[C@@H]2O)C[C@@H]2O[C@](O)(C[C@@H](O)C[C@@H](O)[C@H](O)CC[C@@H](O)C[C@@H](O)CC(=O)O[C@H]1C)C[C@H](O)[C@H]2C(=O)O [Amphotericin B],QC Range 24 hr,[3]; 24 hr,0.25-2
same,QC Range 48 hr,[3]; 48 hr,0.5-4
same,MIC 24 hr,[4],>64
same,MIC 24 hr,[5]; 24 hr,0.5 µg/mL
same,MIC 48 hr,[5]; 48 hr,0.5 µg/mL
same,CLSI QC range of MIC,[6]; 24 hr,0.25 to 2 µg/mL
same,CLSI QC range of MIC,[6]; 48 hr,0.5 to 4 µg/mL
same,MIC 24 hr,[7]; A. flavus ATCC 204304,0.5 µg/mL
same,MIC 48 hr,[7]; A. flavus ATCC 204304,1 µg/mL
same,MIC 24 hr,[7]; A. fumigatus ATCC MYA-3626,0.5 µg/mL
same,MIC 48 hr,[7]; A. fumigatus ATCC MYA-3626,1 µg/mL
same,MIC 24 hr,[8]; 24 hr,0.5 µg/mL
same,MIC 48 hr,[8]; 48 hr,0.5 µg/mL
same,MIC 24 hr,[9],>64
same,QC Range 24 hr,[10]; 24 hr,0.5-2
same,QC Range 48 hr,[10]; 48 hr,1-4
same,QC Range 48 hr,"[11]; A. flavus ATCC 204304, CLSI established QC range",0.5-4
same,QC Range 48 hr,"[11]; A. fumigatus ATCC MYA-3626, CLSI established QC range",0.5-4
same,MIC,"[12]; C. albicans MMX 7039, Sensitive, incubation 24 hr","0.5, 0.5 μg/mL"
same,MIC,"[12]; C. albicans MMX 7039, Sensitive, incubation 48 hr","0.5, 0.5 μg/mL"
same,MIC,"[12]; C. albicans MMX 7055, Sensitive, incubation 24 hr",0.25 µg/mL
same,MIC,"[12]; C. albicans MMX 7055, Sensitive, incubation 48 hr",0.5 µg/mL
same,MIC,"[12]; C. glabrata MMX 7318, FLU^R, incubation 24 hr",0.5 µg/mL
same,MIC,"[12]; C. glabrata MMX 7318, FLU^R, incubation 48 hr",1 µg/mL
same,MIC,"[12]; C. glabrata miX 7086, FLU^R, incubation 24 hr",0.5 µg/mL
same,MIC,"[12]; C. glabrata miX 7086, FLU^R, incubation 48 hr",1 µg/mL
same,MIC,"[12]; C. parapsilosis MMX 2323 (ATCC 22019), QC, incubation 24 hr",0.5 µg/mL
same,MIC,"[12]; C. parapsilosis MMX 2323 (ATCC 22019), QC, incubation 48 hr",1 µg/mL
same,MIC,"[12]; C. parapsilosis MMX 7370, FLU^R, incubation 24 hr",0.5 µg/mL
same,MIC,"[12]; C. parapsilosis MMX 7370, FLU^R, incubation 48 hr",1 µg/mL
same,MIC,"[12]; C. parapsilosis MMX 7555, FLU^R, incubation 24 hr","0.5, 0.5 μg/mL"
same,MIC,"[12]; C. parapsilosis MMX 7555, FLU^R, incubation 48 hr","0.5, 0.5 μg/mL"
same,MIC,"[12]; C. tropicalis MMX 7247, FLU^R, incubation 24 hr",0.5 µg/mL
same,MIC,"[12]; C. tropicalis MMX 7247, FLU^R, incubation 48 hr",1 µg/mL
same,MIC,"[12]; C. tropicalis MMX 7248, FLU^R, incubation 24 hr",0.5 µg/mL
same,MIC,"[12]; C. tropicalis MMX 7248, FLU^R, incubation 48 hr",1 µg/mL
same,MIC,"[12]; C. tropicalis MMX 7360, FLU^R, incubation 24 hr","0.5, 0.5 μg/mL"
same,MIC,"[12]; C. tropicalis MMX 7360, FLU^R, incubation 48 hr","0.5, 0.5 μg/mL"
CCCCCCCCCC(=O)N[C@@H](Cc1c[nH]c2ccccc12)C(=O)N[C@H](CC(N)=O)C(=O)N[C@@H](CC(=O)O)C(=O)N[C@@H]1C(=O)NCC(=O)N[C@@H](CCCN)C(=O)N[C@@H](CC(=O)O)C(=O)N[C@H](C)C(=O)N[C@@H](CC(=O)O)C(=O)NCC(=O)N[C@H](CO)C(=O)N[C@@H]([C@H](C)CC(=O)O)C(=O)N[C@@H](CC(=O)c2ccccc2N)C(=O)O[C@@H]1C [daptomycin],effect of Survanta addition on MIC values,[13]; S. aureus and S. pneumoniae,increased
same,MIC,"[13]; S. pneumoniae ATCC 49619, 0 percent Survanta",0.06 µg/mL
same,MIC,"[13]; S. pneumoniae ATCC 49619, 1 percent Survanta",0.25 µg/mL
same,MIC,"[13]; S. pneumoniae ATCC 49619, 2.5 percent Survanta",1 µg/mL
same,MIC,"[13]; S. pneumoniae MMX 3162, 0 percent Survanta",0.12 µg/mL
same,MIC,"[13]; S. pneumoniae MMX 3162, 1 percent Survanta",0.25 µg/mL
same,MIC,"[13]; S. pneumoniae MMX 3162, 2.5 percent Survanta",0.25 µg/mL
same,MIC,"[13]; Staphylococcus aureus, ATCC29213, S. aureus ATCC 29213, 0 percent Survanta",0.5 µg/mL
same,MIC,"[13]; Staphylococcus aureus, ATCC29213, S. aureus ATCC 29213, 1 percent Survanta",16 µg/mL
same,MIC,"[13]; Staphylococcus aureus, ATCC29213, S. aureus ATCC 29213, 2.5 percent Survanta",32 µg/mL
same,MIC,"[13]; Staphylococcus aureus, ATCC29213, S. aureus ATCC 29213, 5 percent Survanta",> 32 µg/mL
same,MIC,"[13]; Staphylococcus aureus, ATCC29213, S. aureus ATCC 29213, 10 percent Survanta",> 32 µg/mL
same,MIC,"[13]; Staphylococcus aureus, ATCC43300, S. aureus ATCC 43300, 0 percent Survanta",0.25 µg/mL
same,MIC,"[13]; Staphylococcus aureus, ATCC43300, S. aureus ATCC 43300, 1 percent Survanta",8 µg/mL
same,MIC,"[13]; Staphylococcus aureus, ATCC43300, S. aureus ATCC 43300, 2.5 percent Survanta",16 µg/mL
same,MIC,"[13]; Staphylococcus aureus, ATCC43300, S. aureus ATCC 43300, 5 percent Survanta",16 µg/mL
same,MIC,"[13]; Staphylococcus aureus, ATCC43300, S. aureus ATCC 43300, 10 percent Survanta",> 32 µg/mL
same,CLSI acceptable MIC QC range,[14]; S. aureus ATCC 29213,(0.12-1) μg/mL
same,CLSI acceptable MIC QC range,[14]; S. pneumoniae ATCC 49619,(0.06-0.5) μg/mL
